The values that follow come from EP4603105A1, “PHARMACEUTICAL COMPOSITION CONTAINING CYCLIC COMPOUND HAVING SELECTIVE KRAS INHIBITORY EFFECT AGAINST HRAS AND NRAS” (CHUGAI SEIYAKU KABUSHIKI KAISHA, priority 2022, dated 2024).

pIC50, pKd: −log10 of the molar value.

For test [1], the target named is GDP-bound KRAS wild-type protein (Homo sapiens, UniProt P01116). The test is described as follows: Binding to KRAS by surface plasmon resonance (SPR), dissociation constant KD. As to conditions: Single Cycle Kinetics. The procedure, abridged:
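Affinity is measured by surface plasmon resonance at 30°C against captured, GDP-loaded RAS carrying a biotinylated Avi tag. Compounds are titrated by single-cycle kinetics, and KD comes from a 1:1 fit.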

In test [2] the target is GDP-bound NRAS wild-type protein (Homo sapiens, UniProt P01111). Kind of test: Binding to NRAS by surface plasmon resonance (SPR), KD and KD ratio to KRAS. The following applies: ratio of KD for GDP-bound NRAS wild-type protein to KD for KRAS. The essentials: (§1)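 GDP-bound biotin-Avi RAS captured at ~100–300 RU, 30°C, pH 7.4 HBS containing 10 µM GDP, 10 mM MgCl2, 1 mM DTT, 0.01% Tween 20 and 4% DMSO. KD by 1:1 fitting.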
In general terms: SPR reads the build-up and loss of mass on a sensor chip optically.

In test [3] the test system is human lung cancer strain NCI-H441. The format is cell-based. The procedure, abridged:
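Readout: […] after the ATP-based reagent. Compound: serial dilutions in dimethyl sulfoxide.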

Another test addresses HRAS wild-type protein (Homo sapiens, UniProt P01112). Kind of test: Binding to HRAS by surface plasmon resonance (SPR), KD and KD ratio to KRAS. The following applies: ratio of KD for HRAS wild-type protein to KD for KRAS. The procedure, abridged:
as §1

Chain of GDP-bound NRAS wild-type protein (P01111 whole entry): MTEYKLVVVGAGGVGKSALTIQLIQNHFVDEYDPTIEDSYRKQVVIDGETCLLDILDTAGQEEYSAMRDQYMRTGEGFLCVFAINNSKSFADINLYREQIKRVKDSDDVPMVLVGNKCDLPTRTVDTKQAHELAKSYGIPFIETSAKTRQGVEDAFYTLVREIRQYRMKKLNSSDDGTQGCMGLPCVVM
Chain of HRAS wild-type protein (P01112 whole entry): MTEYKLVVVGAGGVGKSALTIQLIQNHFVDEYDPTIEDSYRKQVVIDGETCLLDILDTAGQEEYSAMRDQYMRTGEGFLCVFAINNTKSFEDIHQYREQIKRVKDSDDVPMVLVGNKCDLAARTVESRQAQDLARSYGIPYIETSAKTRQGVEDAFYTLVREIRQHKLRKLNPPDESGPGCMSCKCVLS
Chain of GDP-bound KRAS wild-type protein (P01116 1-188 isoform P01116-2): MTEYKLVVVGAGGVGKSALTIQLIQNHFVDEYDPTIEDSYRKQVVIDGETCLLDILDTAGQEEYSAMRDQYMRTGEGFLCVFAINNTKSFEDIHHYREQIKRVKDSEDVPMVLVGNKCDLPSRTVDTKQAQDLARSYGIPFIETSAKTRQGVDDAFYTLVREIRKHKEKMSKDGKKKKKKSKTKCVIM

Compound `CC[C@H](C)[C@@H]1NC(=O)[C@H](CC(C)C)N(C)C(=O)C[C@@H](C(=O)N2CCOCC2)N(C)C(=O)[C@H](C2CCCC2)N(C)C(=O)C2(CCC2)NC(=O)[C@@H]2[C@H]3C[C@H]3CN2C(=O)[C@H](CCc2cc(F)c(C(F)(F)F)c(F)c2)NC(=O)CN(C)C(=O)[C@H](Cc2ccc(C(F)(F)F)cc2)N2CCCCC[C@@H](C2=O)N(C)C(=O)CN(C)C1=O` [PP0819] had a pKd in test [1] of 9.25. In addition, the “NRAS /KRAS” value in test [2] is “A (a compound having 10 or more and less than 20 is denoted as A)”. The pIC50 in test [3] was 7.12. Besides, on HRAS wild-type protein, the “HRAS /KRAS” value was “B (a compound having 3 or more and less than 10 is denoted as B)”.
Consider `CCO[C@@H]1C[C@H]2C(=O)NC3(CCC3)C(=O)N(C)[C@@H](C(CC)CC)C(=O)N(C)[C@H](C(=O)N3CCOCC3)CC(=O)N(C)[C@@H](CC(C)C)C(=O)N[C@@H]([C@@H](C)CC)C(=O)N(C)CC(=O)N(C)[C@H]3CCCCCN(C3=O)[C@@H](Cc3ccc(C(F)(F)F)cc3)C(=O)N(C)CC(=O)N[C@@H](CCc3cc(F)c(C(F)(F)F)c(F)c3)C(=O)N2C1` [PP0820], for which, in test [1], the pKd was 8.92. In test [2], the “NRAS /KRAS” value is “A (a compound having 10 or more and less than 20 is denoted as A)”. In test [3], this compound gave a pIC50 of 7.22. Besides, at HRAS wild-type protein, the “HRAS /KRAS” value is “B (a compound having 3 or more and less than 10 is denoted as B)”.
Consider `CCO[C@@H]1C[C@H]2C(=O)NC3(CCC3)C(=O)N(C)[C@@H]([C@H](C)CC)C(=O)N(C)[C@H](C(=O)N3CCOCC3)CC(=O)N(C)[C@@H](CC(C)C)C(=O)N[C@@H]([C@@H](C)CC)C(=O)N(C)CC(=O)N(C)[C@H]3CCCCCN(C3=O)[C@@H](Cc3ccc(C(F)(F)F)cc3)C(=O)N(C)CC(=O)N[C@@H](CCc3cc(F)c(C(F)(F)F)c(F)c3)C(=O)N2C1` [PP0821], for which the negative-log Kd (pKd) in test [1] was 8.70. The “NRAS /KRAS” value in test [2] was “A (a compound having 10 or more and less than 20 is denoted as A)”. The compound also gave a pIC50 in test [3] of 6.60. Moreover, the “HRAS /KRAS” value at HRAS wild-type protein was “B (a compound having 3 or more and less than 10 is denoted as B)”.
Consider `CCO[C@@H]1C[C@H]2C(=O)NC3(CCC3)C(=O)N(C)[C@@H](C3CCCC3)C(=O)N(C)[C@H](C(=O)N3CCOCC3)CC(=O)N(C)[C@@H](CC(C)C)C(=O)N[C@@H]([C@@H](C)CC)C(=O)N(C)CC(=O)N(C)[C@H]3CC=C(C)CN(C3=O)[C@@H](Cc3ccc(C(F)(F)F)cc3)C(=O)N(C)CC(=O)N[C@@H](CCc3cc(F)c(C(F)(F)F)c(F)c3)C(=O)N2C1` [PP0826], for which the pKd in test [1] was 9.89. Further, in test [2], the “NRAS /KRAS” value is “C (A compound having a KD ratio of 0.1 or more and less than 3 is denoted as C)”. This compound showed a pIC50 in test [3] of 7.94. Also, the “HRAS /KRAS” value on HRAS wild-type protein is “B (a compound having 3 or more and less than 10 is denoted as B)”.
`CCO[C@@H]1C[C@H]2C(=O)NC3(CCC3)C(=O)N(C)[C@@H](C3CCCC3)C(=O)N(C)[C@H](C(=O)N3CCOCC3)CC(=O)N(C)[C@@H](CC(C)C)C(=O)N[C@@H]([C@@H](C)CC)C(=O)N(C)CC(=O)N(C)[C@H]3C[C@H]4C[C@H]4CN(C3=O)[C@@H](Cc3ccc(C(F)(F)F)cc3)C(=O)N(C)CC(=O)N[C@@H](CCc3cc(F)c(C(F)(F)F)c(F)c3)C(=O)N2C1` [PP0829] had a pKd in test [1] of 10.09. Moreover, the “NRAS /KRAS” value in test [2] was “B (a compound having 3 or more and less than 10 is denoted as B)”. The pIC50 in test [3] is 8.36. The “HRAS /KRAS” value on HRAS wild-type protein was “C (A compound having a KD ratio of 0.1 or more and less than 3 is denoted as C)”.
For `CC[C@H](C)[C@@H]1NC(=O)[C@H](COC)N(C)C(=O)C[C@@H](C(=O)N2CCOCC2)N(C)C(=O)[C@H](C2CCCC2)N(C)C(=O)C2(CCC2)NC(=O)[C@@H]2CC(F)(F)CN2C(=O)[C@H](CCc2cc(F)c(C(F)(F)F)c(F)c2)NC(=O)CN(C)C(=O)[C@H](Cc2ccc(C(F)(F)F)cc2)N2CCCCC[C@@H](C2=O)N(C)C(=O)CN(C)C1=O` [PP0834], the pKd in test [1] is 9.72. The “NRAS /KRAS” value in test [2] is “A (a compound having 10 or more and less than 20 is denoted as A)”. In addition, the pIC50 in test [3] was 7.87. Moreover, the “HRAS /KRAS” value on HRAS wild-type protein was “B (a compound having 3 or more and less than 10 is denoted as B)”.
For `CCO[C@@H]1C[C@H]2C(=O)NC3(CCC3)C(=O)N(C)[C@@H](C3CCCC3)C(=O)N(C)[C@H](C(=O)N3CCOCC3)CC(=O)N(C)[C@@H](COC3CC3)C(=O)N[C@@H]([C@@H](C)CC)C(=O)N(C)CC(=O)N(C)[C@H]3CCCCCN(C3=O)[C@@H](Cc3ccc(C(F)(F)F)cc3)C(=O)N(C)CC(=O)N[C@@H](CCc3cc(F)c(C(F)(F)F)c(F)c3)C(=O)N2C1` [PP0852], in test [1], the negative-log Kd (pKd) was 9.34. The “NRAS /KRAS” value in test [2] was “B (a compound having 3 or more and less than 10 is denoted as B)”. For the same compound, the pIC50 in test [3] was 7.45. On HRAS wild-type protein, the “HRAS /KRAS” value is “B (a compound having 3 or more and less than 10 is denoted as B)”.
`CCO[C@@H]1C[C@H]2C(=O)NC3(CCC3)C(=O)N(C)[C@@H](C3CCCC3)C(=O)N(C)[C@H](C(=O)N3CCOCC3)CC(=O)N(C)[C@@H](COCC(F)(F)F)C(=O)N[C@@H]([C@@H](C)CC)C(=O)N(C)CC(=O)N(C)[C@H]3CCCCCN(C3=O)[C@@H](Cc3ccc(C(F)(F)F)cc3)C(=O)N(C)CC(=O)N[C@@H](CCc3cc(F)c(C(F)(F)F)c(F)c3)C(=O)N2C1` [PP0853]: in test [1], the pKd was 9.17. For the same compound, the “NRAS /KRAS” value in test [2] is “B (a compound having 3 or more and less than 10 is denoted as B)”. Also, the pIC50 in test [3] was 7.61. For the same compound, on HRAS wild-type protein, the “HRAS /KRAS” value is “B (a compound having 3 or more and less than 10 is denoted as B)”.
Compound `CCO[C@@H]1C[C@H]2C(=O)NC3(CCC3)C(=O)N(C)[C@@H](C3CCCC3)C(=O)N(C)[C@H](C(=O)N3CCOCC3)CC(=O)N(C)[C@@H](Cc3cscn3)C(=O)N[C@@H]([C@@H](C)CC)C(=O)N(C)CC(=O)N(C)[C@H]3CCCCCN(C3=O)[C@@H](Cc3ccc(C(F)(F)F)cc3)C(=O)N(C)CC(=O)N[C@@H](CCc3cc(F)c(C(F)(F)F)c(F)c3)C(=O)N2C1` [PP0855] showed a pKd in test [1] of 9.08. The “NRAS /KRAS” value in test [2] was “B (a compound having 3 or more and less than 10 is denoted as B)”. The pIC50 in test [3] was 6.94. Besides, the “HRAS /KRAS” value on HRAS wild-type protein is “B (a compound having 3 or more and less than 10 is denoted as B)”.
`CCO[C@@H]1C[C@H]2C(=O)NC3(CCC3)C(=O)N(C)[C@@H](C3CCCC3)C(=O)N(C)[C@H](C(=O)N3CCOCC3)CC(=O)N(C)[C@@H](Cc3cccc(F)c3)C(=O)N[C@@H]([C@@H](C)CC)C(=O)N(C)CC(=O)N(C)[C@H]3CCCCCN(C3=O)[C@@H](Cc3ccc(C(F)(F)F)cc3)C(=O)N(C)CC(=O)N[C@@H](CCc3cc(F)c(C(F)(F)F)c(F)c3)C(=O)N2C1` [PP0856] gave a negative-log Kd (pKd) in test [1] of 9.02. For the same compound, the “NRAS /KRAS” value in test [2] is “B (a compound having 3 or more and less than 10 is denoted as B)”. The compound also showed a negative logarithm of the IC50 (pIC50) in test [3] of 7.18. Moreover, the “HRAS /KRAS” value on HRAS wild-type protein was “B (a compound having 3 or more and less than 10 is denoted as B)”.
In test [1], `CC[C@H](C)[C@@H]1NC(=O)[C@H](CC(C)C)N(C)C(=O)C[C@@H](C(=O)N2CCOCC2)N(C)C(=O)[C@H](C2CCCC2)N(C)C(=O)C2(CCC2)NC(=O)[C@@H]2[C@H](O)CCN2C(=O)[C@H](CCc2cc(F)c(C(F)(F)F)c(F)c2)NC(=O)CN(C)C(=O)[C@H](Cc2ccc(C(F)(F)F)cc2)N2CCCCC[C@@H](C2=O)N(C)C(=O)CN(C)C1=O` [PP0873] showed a pKd of 9.07. Also, the “NRAS /KRAS” value in test [2] was “A (a compound having 10 or more and less than 20 is denoted as A)”. Further, the pIC50 in test [3] was 6.05. Further, the “HRAS /KRAS” value at HRAS wild-type protein was “B (a compound having 3 or more and less than 10 is denoted as B)”.
As to `C=CCCC[C@H]1C(=O)N[C@@H]([C@@H](C)CC)C(=O)N(C)CC(=O)N(C)[C@H]2CCCCCN(C2=O)[C@@H](Cc2ccc(C(F)(F)F)cc2)C(=O)N(C)CC(=O)N[C@@H](CCc2cc(F)c(C(F)(F)F)c(F)c2)C(=O)N2C[C@H](OCC)C[C@H]2C(=O)N[C@](C)(CC=C)C(=O)N(C)[C@@H](C2CCCC2)C(=O)N(C)[C@H](C(=O)N2CCOCC2)CC(=O)N1C` [PP0880], the pKd in test [1] was 8.35. In test [2], the “NRAS /KRAS” value was “B (a compound having 3 or more and less than 10 is denoted as B)”. This compound also had a pIC50 in test [3] of 6.80. On HRAS wild-type protein, the “HRAS /KRAS” value is “B (a compound having 3 or more and less than 10 is denoted as B)”.
With `CCO[C@@H]1C[C@H]2C(=O)NC3(CCC3)C(=O)N(C)[C@@H](C3CCCC3)C(=O)N(C)[C@H](C(=O)N(C)C)CC(=O)N(C)[C@@H](CC)C(=O)N[C@@H]([C@@H](C)CC)C(=O)N(C)CC(=O)N(C)[C@H]3CCCCN(C3=O)[C@@H](Cc3ccc(C(F)(F)F)cc3)C(=O)N(C)CC(=O)N[C@@H](CCc3ccc4ccsc4c3)C(=O)N2C1` [PP0888], the pKd in test [1] was 9.77. In addition, the “NRAS /KRAS” value in test [2] is “C (A compound having a KD ratio of 0.1 or more and less than 3 is denoted as C)”. In test [3], this compound had a pIC50 of 7.59. At HRAS wild-type protein, the “HRAS /KRAS” value is “B (a compound having 3 or more and less than 10 is denoted as B)”.
On to `CCO[C@@H]1C[C@H]2C(=O)NC3(CCC3)C(=O)N(C)[C@@H](C3CCCC3)C(=O)N(C)[C@H](C(=O)N(C)C)CC(=O)N(C)[C@@H](CC)C(=O)N[C@@H]([C@@H](C)CC)C(=O)N(C)CC(=O)N(C)[C@H]3CCCCCN(C3=O)[C@@H](Cc3ccc(F)c(F)c3)C(=O)N(C)CC(=O)N[C@@H](CCc3cc(F)c(C(F)(F)F)c(F)c3)C(=O)N2C1` [PP0907], for which, in test [1], the pKd was 9.80. In test [2], the “NRAS /KRAS” value was “B (a compound having 3 or more and less than 10 is denoted as B)”. Moreover, in test [3], the pIC50 was 7.61. For the same compound, the “HRAS /KRAS” value on HRAS wild-type protein is “B (a compound having 3 or more and less than 10 is denoted as B)”.

The pKd is −log10 of the Kd, conventionally taken in molar units. The term pIC50 denotes −log10 of the IC50, conventionally taken in molar units. A high value points to a low IC50.
